{
  "source": "patent US20240408119A1",
  "about": "“DELIVERY OF THERAPEUTIC ALKALOID COMPOUNDS” (priority 2022, published 2024)",
  "experiment": "Plasma Stability Assay (Example A3), human plasma",
  "type": "in vitro ADME",
  "details": "prodrug remaining, 10 μM, 37° C.",
  "from_the_text": "The data is represented in the table below.",
  "data": [
    {"smiles": "COc1ccc([C@@]23CCC(OP4(=O)OCC(C)(C)CO4)=C[C@@H]2N(C)CC3)cc1OC", "note": "[Compound 323, 2-[[(3aS,7aS)-3a-(3,4-dimethoxyphenyl)-1-methyl-3,4,5,7a-tetrahydro-2H-indol-6-yl]oxy]-5,5-dimethyl-1,3,2λ^5-dioxaphosphinane 2-oxide]", "values": [
      {"measurement": "Human Plasma Prodrug (%)", "setting": "0 min", "result": 100.00, "unit": "%"},
      {"measurement": "Human Plasma Prodrug (%)", "setting": "10 min", "result": 86.9, "unit": "%"},
      {"measurement": "Human Plasma Prodrug (%)", "setting": "30 min", "result": 70.8, "unit": "%"},
      {"measurement": "Human Plasma Prodrug (%)", "setting": "60 min", "result": 52.7, "unit": "%"},
      {"measurement": "Human Plasma Prodrug (%)", "setting": "120 min", "result": 27.0, "unit": "%"},
      {"measurement": "Human Plasma Prodrug (%)", "setting": "240 min", "result": 9.3, "unit": "%"}
    ]}
  ]
}
